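How tested: cells in 96-well plates exposed to compound for 48 hours at five concentrations. Abbreviation: GI50, concentration required for 50% inhibition of growth.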 Activity calls are given as the source filed them. Cut-off read from the data, not from the text of the source: active = GI50 up to about 1.1 µM and inactive = higher.
What was measured:
Experiment in all cases: NCI tumour cell line growth inhibition, 48 h
[1] = test system: NCI-H23
[2] = test system: SK-OV-3
[3] = test system: TK-10
[4] = test system: RPMI-8226
[5] = test system: SK-MEL-28
[6] = test system: SNB-75
[7] = test system: CCRF-CEM
[8] = test system: SK-MEL-5
[9] = test system: OVCAR-8
[10] = test system: DMS-114
[11] = test system: ACHN
[12] = test system: U-251
[13] = test system: HL-60
[14] = test system: NCI-H460
[15] = test system: SNB-78
[16] = test system: IGROV-1
[17] = test system: SF-539
[18] = test system: KM-20L2
[19] = test system: UACC-257
[20] = test system: OVCAR-5
[21] = test system: HOP-62
[22] = test system: LXFL 529
[23] = test system: HCC 2998
[24] = test system: A498
[25] = test system: XF498
[26] = test system: Malme-3M
[27] = test system: M19-MEL
[28] = test system: SNB-19
[29] = test system: KM12
[30] = test system: SF-295
[31] = test system: 786-0
[32] = test system: DMS-273
[33] = test system: SW-620
[34] = test system: UO-31
[35] = test system: LOX IMVI
[36] = test system: NCI-H522
[37] = test system: HOP-92
[38] = test system: MOLT-4
[39] = test system: DLD-1
[40] = test system: COLO 205
[41] = test system: OVCAR-3
[42] = test system: RXF 393
[43] = test system: HCT-116
[44] = test system: HT-29
[45] = test system: HOP-18
[46] = test system: SK-MEL-2
[47] = test system: SF-268
[48] = test system: EKVX
[49] = test system: A549
[50] = test system: K562
[51] = test system: SR
[52] = test system: SN12C
[53] = test system: NCI-H226
[54] = test system: CAKI-1
[55] = test system: M14
[56] = test system: HCT-15
[57] = test system: RXF 631
[58] = test system: OVCAR-4
[59] = test system: UACC-62

O=[N+]([O-])c1cccc(C2=NN(c3ccccc3)C3c4cc(Br)ccc4OCC23)c1 (stereo not given)
GI50 [1]: > 100 µM (inactive)
GI50 [2]: > 100 µM (inactive)
GI50 [3]: > 100 µM (inactive)
GI50 [4]: > 100 µM (inactive)
GI50 [5]: > 100 µM (inactive)
GI50 [6]: > 100 µM (inactive)
GI50 [7]: > 100 µM (inactive)
GI50 [8]: > 100 µM (inactive)
GI50 [9]: > 100 µM (inactive)
GI50 [10]: > 100 µM (inactive)
GI50 [11]: > 100 µM (inactive)
GI50 [12]: > 100 µM (inactive)
GI50 [13]: > 100 µM (inactive)
GI50 [14]: > 100 µM (inactive)
GI50 [15]: > 100 µM (inactive)
GI50 [16]: > 100 µM (inactive)
GI50 [17]: > 100 µM (inactive)
GI50 [18]: > 100 µM (inactive)
GI50 [19]: > 100 µM (inactive)
GI50 [20]: > 100 µM (inactive)
GI50 [21]: > 100 µM (inactive)
GI50 [22]: > 100 µM (inactive)
GI50 [23]: > 100 µM (inactive)
GI50 [24]: > 100 µM (inactive)
GI50 [25]: > 100 µM (inactive)
GI50 [26]: > 100 µM (inactive)
GI50 [27]: > 100 µM (inactive)
GI50 [28]: > 100 µM (inactive)
GI50 [29]: 81.8 µM (inactive)
GI50 [30]: > 100 µM (inactive)
GI50 [31]: > 100 µM (inactive)
GI50 [32]: > 100 µM (inactive)
GI50 [33]: > 100 µM (inactive)
GI50 [34]: 17.3 µM (inactive)
GI50 [35]: > 100 µM (inactive)
GI50 [36]: 97.5 µM (inactive)
GI50 [37]: 12 µM (inactive)
GI50 [38]: > 100 µM (inactive)
GI50 [39]: > 100 µM (inactive)
GI50 [40]: > 100 µM (inactive)
GI50 [41]: > 100 µM (inactive)
GI50 [42]: > 100 µM (inactive)
GI50 [43]: 45.9 µM (inactive)
GI50 [44]: 46.1 µM (inactive)
GI50 [45]: > 100 µM (inactive)
GI50 [46]: > 100 µM (inactive)
GI50 [47]: > 100 µM (inactive)
GI50 [48]: 87.7 µM (inactive)
GI50 [49]: > 100 µM (inactive)
GI50 [50]: > 100 µM (inactive)

O=C(Nc1cccc2c1[nH]c1c(-c3ccccc3)nccc12)c1ccccc1[N+](=O)[O-]
GI50 [1]: 34.7 µM (inactive)
GI50 [51]: 12.5 µM (inactive)
GI50 [3]: 33 µM (inactive)
GI50 [4]: 30.7 µM (inactive)
GI50 [5]: 49.5 µM (inactive)
GI50 [6]: 29.7 µM (inactive)
GI50 [7]: 21.9 µM (inactive)
GI50 [52]: 49.1 µM (inactive)
GI50 [53]: 3.74 µM (inactive)
GI50 [9]: 24.8 µM (inactive)
GI50 [54]: 18.8 µM (inactive)
GI50 [11]: 20.9 µM (inactive)
GI50 [12]: 34.2 µM (inactive)
GI50 [55]: 34.1 µM (inactive)
GI50 [13]: 26.2 µM (inactive)
GI50 [14]: 18.6 µM (inactive)
GI50 [15]: 30.7 µM (inactive)
GI50 [16]: 54.5 µM (inactive)
GI50 [17]: 20.2 µM (inactive)
GI50 [18]: 11.2 µM (inactive)
GI50 [19]: 74.6 µM (inactive)
GI50 [20]: 18.6 µM (inactive)
GI50 [22]: 25.5 µM (inactive)
GI50 [23]: 18.6 µM (inactive)
GI50 [24]: 7.76 µM (inactive)
GI50 [56]: 7.36 µM
GI50 [26]: > 100 µM (inactive)
GI50 [28]: 59.8 µM (inactive)
GI50 [29]: 9.55 µM (inactive)
GI50 [30]: 7.13 µM (inactive)
GI50 [32]: 4.88 µM (inactive)
GI50 [33]: 41.2 µM (inactive)
GI50 [57]: 17.9 µM (inactive)
GI50 [35]: 24.5 µM (inactive)
GI50 [37]: 2.81 µM (inactive)
GI50 [38]: 12.9 µM (inactive)
GI50 [40]: 26.2 µM (inactive)
GI50 [42]: 12.6 µM (inactive)
GI50 [43]: 26.4 µM (inactive)
GI50 [44]: 8.71 µM (inactive)
GI50 [58]: 38.9 µM (inactive)
GI50 [45]: > 100 µM (inactive)
GI50 [46]: 54.7 µM (inactive)
GI50 [47]: 27.9 µM (inactive)
GI50 [48]: 50.9 µM (inactive)
GI50 [49]: 24.4 µM (inactive)
GI50 [50]: 21.9 µM (inactive)

C[C@@H]1O[C@@H](O[C@H]2[C@H](Oc3cc(O)c4c(=O)cc(-c5ccc(O)cc5)oc4c3)O[C@H](CO)[C@@H](O)[C@@H]2O)[C@H](O)[C@H](O)[C@H]1O [RHOIFOLIN]
GI50 [1]: > 100 µM (inactive)
GI50 [2]: > 100 µM (inactive)
GI50 [3]: > 100 µM (inactive)
GI50 [4]: > 100 µM (inactive)
GI50 [5]: > 100 µM (inactive)
GI50 [6]: > 100 µM (inactive)
GI50 [7]: > 100 µM (inactive)
GI50 [8]: > 100 µM (inactive)
GI50 [52]: > 100 µM (inactive)
GI50 [9]: > 100 µM (inactive)
GI50 [54]: > 100 µM (inactive)
GI50 [10]: > 100 µM (inactive)
GI50 [11]: > 100 µM (inactive)
GI50 [12]: > 100 µM (inactive)
GI50 [55]: > 100 µM (inactive)
GI50 [13]: > 100 µM (inactive)
GI50 [14]: > 100 µM (inactive)
GI50 [15]: > 100 µM (inactive)
GI50 [16]: > 100 µM (inactive)
GI50 [59]: > 100 µM (inactive)
GI50 [17]: > 100 µM (inactive)
GI50 [18]: > 100 µM (inactive)
GI50 [19]: > 100 µM (inactive)
GI50 [20]: > 100 µM (inactive)
GI50 [21]: > 100 µM (inactive)
GI50 [22]: > 100 µM (inactive)
GI50 [24]: > 100 µM (inactive)
GI50 [56]: > 100 µM
GI50 [25]: > 100 µM (inactive)
GI50 [26]: > 100 µM (inactive)
GI50 [27]: > 100 µM (inactive)
GI50 [28]: > 100 µM (inactive)
GI50 [29]: > 100 µM (inactive)
GI50 [30]: > 100 µM (inactive)
GI50 [31]: > 100 µM (inactive)
GI50 [32]: > 100 µM (inactive)
GI50 [34]: > 100 µM (inactive)
GI50 [35]: > 100 µM (inactive)
GI50 [36]: > 100 µM (inactive)
GI50 [37]: > 100 µM (inactive)
GI50 [38]: > 100 µM (inactive)
GI50 [39]: > 100 µM (inactive)
GI50 [40]: > 100 µM (inactive)
GI50 [41]: > 100 µM (inactive)
GI50 [43]: > 100 µM (inactive)
GI50 [44]: > 100 µM (inactive)
GI50 [58]: > 100 µM (inactive)
GI50 [45]: > 100 µM (inactive)
GI50 [46]: > 100 µM (inactive)
GI50 [47]: > 100 µM (inactive)
GI50 [48]: > 100 µM (inactive)
GI50 [49]: > 100 µM (inactive)
GI50 [50]: > 100 µM (inactive)

— ChEMBL document CHEMBL1201862, “PubChem BioAssay data set” (2004)
